From patent publication US11324798B2, “Materials and methods for treatment of inflammation” (CYTOGEL PHARMA, LLC, priority 2010, dated 2022)
“And” between values parts separate entries of the source, which are not always exact repeats. Equal entries are not always repeated.

Tested on: CGRP release from isolated rat tracheae
Assay: Electrical field stimulation (EFS)-evoked release of CGRP from isolated rat tracheae, radioimmunoassay
Assay type: cell-based
Conditions: for Release of CGRP into the incubation medium / Absolute release of CGRP: individual experiments 1-5; for Release of CGRP into the incubation medium, Mean / Absolute release of CGRP, Mean: mean of 5 experiments
Procedure: For the in vitro release experiments, a 10 mg/ml (14.62 mM; MW 684) stock solution of CYT-1010 was made in DMSO, which was further diluted with the oxygenated Krebs solution used in the organ bath: 5.5 μl of this CYT-1010 stock solution was added into 40 ml Krebs to make the highest applied 2 μM concentration of compound CYT-1010. Further dilutions to obtain the lower concentrations were prepared with Krebs solution.
The incubation media containing the respective CYT-1010 concentrations were administered in the stimulated and post-stimulated 8-min fractions.
Since even the highest, 2 μM, concentration of CYT-1010 solution contained negligible amount of DMSO, simple Krebs solution was used in the control experiments.
Rats were exsanguinated in deep anaesthesia (sodium thiobarbital, 50 mg/kg i.p.), then the whole trachea was removed and cleaned of fat and adhering connective tissues. Tracheae from two rats were placed into the same 1.8 ml organ bath to obtain sufficient amount of released peptide and perfused (1 ml/min) with pH-(7.2) controlled oxygenized Krebs solution for 60 minutes (equilibration period) at 37° C. temperature. After discontinuation of the flow, the solution was changed three times for eight minutes to produce pre-stimulated, stimulated, post-stimulated fractions.
Electrical field stimulation (40 V, 0.1 ms, 10 Hz for 120 s; 1200 pulses) was performed to elicit neurotransmitter release at the beginning of the second 8-minute period. Stimulation with 0.1 ms pulse width selectively activates very fast Na^+ channels, which are only present in the membrane of neural structures (Birmingham and Wilson, 1963; Coburn and Tomita 1973; Szolcsányi and Barthó, 1982); therefore, it excites nerve endings without influencing other excitable cells in the tracheae such as smooth muscle cells.
Krebs solution was used in the pre-stimulated fraction for determining the basal CGRP outflow. During the stimulated and post-stimulated fractions, the incubation medium contained the examined concentrations of CYT-1010 (10, 100, 500, 1000 and 2000 nM) in separate experiments, and only one concentration was applied to the same tracheae to avoid neuropeptide depletion. In each group, 5 experiments were performed in parallel in 5 perfusion systems to provide n=5 data per group (10 tracheae per group).
60 male Wistar rats (250-300 g) altogether were divided into 6 experimental groups: Group 1: controls (n=10); Group 2: 10 nM CYT-1010 (n=10); Group 3: 100 nM CYT-1010 (n=10); Group 4: 500 nM CYT-1010 (n=10); Group 5: 1000 nM CYT-1010 (n=10); and Group 6: 2000 nM CYT-1010 (n=10). The total study was performed on three experimental days, two groups every occasion.
Calcitonin gene-related peptide (CGRP) and substance P (SP) concentrations were determined from 400-400 μl samples of organ fluid of the preparations by means of radioimmunoassay methods described in Nemeth et al., 1996, 1998, 1999, 2006; Helyes et al., 1997, 2001, 2006; Borzsei et al., 2008). Each of these publications is incorporated herein by reference in its entirety.
The released amount of the peptides CGRP and SP was calculated as fmol peptide per mg wet tissue (trachea). The absolute release in response to EFS in each experiment was calculated by adding peptide release in the second and third 8-min fractions and then taking off the basal release measured in the first (pre-stimulated) fraction. The detection limits of the RIA assays were 0.2 fmol/tube and 2 fmol/tube for CGRP and SP, respectively.

NC(Cc1ccc(O)cc1)C(=O)NC1CCCCNC(=O)C(Cc2ccccc2)NC(=O)C(Cc2c[nH]c3ccccc23)NC1=O [CYT-1010, H-Tyr-c-[D-Lys-Trp-Phe]]
Effect on CGRP release in the third, post-stimulated fraction (10 nM): did not influence
CGRP release, % increase above baseline (10 nM, after stimulation): 105.75%
Release of CGRP into the incubation medium (10 nM, after stimulation (post-stimulated 8-min fraction)): 0.602 fmol/mg wet tissue and 0.730 fmol/mg wet tissue and 0.193 fmol/mg wet tissue and 0.204 fmol/mg wet tissue and 0.528 fmol/mg wet tissue
Release of CGRP into the incubation medium, Mean (10 nM, after stimulation (post-stimulated fraction)): 0.451 fmol/mg wet tissue
CGRP release, % increase above baseline (10 nM, before stimulation): 0.00%
Release of CGRP into the incubation medium (10 nM, before stimulation (pre-stimulated 8-min fraction)): 0.220 fmol/mg wet tissue and 0.250 fmol/mg wet tissue and 0.146 fmol/mg wet tissue and 0.256 fmol/mg wet tissue and 0.226 fmol/mg wet tissue
Release of CGRP into the incubation medium, Mean (10 nM, before stimulation (pre-stimulated fraction)): 0.219 fmol/mg wet tissue
CGRP release, % increase above baseline (10 nM, during stimulation): 105.75%
Release of CGRP into the incubation medium (10 nM, during stimulation (stimulated 8-min fraction)): 0.600 fmol/mg wet tissue and 0.420 fmol/mg wet tissue and 0.299 fmol/mg wet tissue and 0.308 fmol/mg wet tissue and 0.630 fmol/mg wet tissue
Release of CGRP into the incubation medium, Mean (10 nM, during stimulation (stimulated fraction)): 0.451 fmol/mg wet tissue
Absolute release of CGRP (10 nM): 0.762 fmol/mg wet tissue and 0.650 fmol/mg wet tissue and 0.201 fmol/mg wet tissue and 0.001 fmol/mg wet tissue and 0.706 fmol/mg wet tissue
Absolute release of CGRP, Mean (10 nM): 0.464 fmol/mg wet tissue
CGRP release, % increase above baseline (100 nM, after stimulation): 39.26%
Release of CGRP into the incubation medium (100 nM, after stimulation (post-stimulated 8-min fraction)): 0.284 fmol/mg wet tissue and 0.135 fmol/mg wet tissue and 0.267 fmol/mg wet tissue and 0.231 fmol/mg wet tissue and 0.226 fmol/mg wet tissue
Release of CGRP into the incubation medium, Mean (100 nM, after stimulation (post-stimulated fraction)): 0.229 fmol/mg wet tissue
CGRP release, % increase above baseline (100 nM, before stimulation): 0.00%
Release of CGRP into the incubation medium (100 nM, before stimulation (pre-stimulated 8-min fraction)): 0.243 fmol/mg wet tissue and 0.129 fmol/mg wet tissue and 0.128 fmol/mg wet tissue and 0.138 fmol/mg wet tissue and 0.183 fmol/mg wet tissue
Release of CGRP into the incubation medium, Mean (100 nM, before stimulation (pre-stimulated fraction)): 0.164 fmol/mg wet tissue
CGRP release, % increase above baseline (100 nM, during stimulation): 184.81%
Release of CGRP into the incubation medium (100 nM, during stimulation (stimulated 8-min fraction)): 0.586 fmol/mg wet tissue and 0.281 fmol/mg wet tissue and 0.526 fmol/mg wet tissue and 0.390 fmol/mg wet tissue and 0.554 fmol/mg wet tissue
Release of CGRP into the incubation medium, Mean (100 nM, during stimulation (stimulated fraction)): 0.468 fmol/mg wet tissue
Absolute release of CGRP (100 nM): 0.384 fmol/mg wet tissue and 0.159 fmol/mg wet tissue and 0.538 fmol/mg wet tissue and 0.344 fmol/mg wet tissue and 0.415 fmol/mg wet tissue
Absolute release of CGRP, Mean (100 nM): 0.368 fmol/mg wet tissue
Inhibition of EFS-evoked absolute CGRP release (500 nM (maximal effect), 0.5 µM): 69.9% and 70%
CGRP release, % increase above baseline (500 nM, after stimulation): 48.89%
Release of CGRP into the incubation medium (500 nM, after stimulation (post-stimulated 8-min fraction)): 0.137 fmol/mg wet tissue and 0.206 fmol/mg wet tissue and 0.267 fmol/mg wet tissue and 0.224 fmol/mg wet tissue and 0.213 fmol/mg wet tissue
Release of CGRP into the incubation medium, Mean (500 nM, after stimulation (post-stimulated fraction)): 0.210 fmol/mg wet tissue
CGRP release, % increase above baseline (500 nM, before stimulation): 0.00%
Release of CGRP into the incubation medium (500 nM, before stimulation (pre-stimulated 8-min fraction)): 0.136 fmol/mg wet tissue and 0.148 fmol/mg wet tissue and 0.146 fmol/mg wet tissue and 0.118 fmol/mg wet tissue and 0.157 fmol/mg wet tissue
Release of CGRP into the incubation medium, Mean (500 nM, before stimulation (pre-stimulated fraction)): 0.141 fmol/mg wet tissue
CGRP release, % increase above baseline (500 nM, during stimulation): 70.52%
Release of CGRP into the incubation medium (500 nM, during stimulation (stimulated 8-min fraction)): 0.162 fmol/mg wet tissue and 0.301 fmol/mg wet tissue and 0.304 fmol/mg wet tissue and 0.192 fmol/mg wet tissue and 0.241 fmol/mg wet tissue
Release of CGRP into the incubation medium, Mean (500 nM, during stimulation (stimulated fraction)): 0.240 fmol/mg wet tissue
Absolute release of CGRP (500 nM): 0.028 fmol/mg wet tissue and 0.212 fmol/mg wet tissue and 0.279 fmol/mg wet tissue and 0.181 fmol/mg wet tissue and 0.140 fmol/mg wet tissue
Absolute release of CGRP, Mean (500 nM): 0.168 fmol/mg wet tissue
Inhibition of EFS-evoked absolute CGRP release (1000 nM, 1 µM): 66.3% and 66%
Inhibition of EFS-evoked absolute CGRP release (2000 nM): 49.1%
CGRP release, % increase above baseline (1 microM, after stimulation): 29.82%
Release of CGRP into the incubation medium (1 microM, after stimulation (post-stimulated 8-min fraction)): 0.386 fmol/mg wet tissue and 0.162 fmol/mg wet tissue and 0.130 fmol/mg wet tissue (2×) and 0.121 fmol/mg wet tissue
Release of CGRP into the incubation medium, Mean (1 microM, after stimulation (post-stimulated fraction)): 0.186 fmol/mg wet tissue
CGRP release, % increase above baseline (1 microM, before stimulation): 00.0%
Release of CGRP into the incubation medium (1 microM, before stimulation (pre-stimulated 8-min fraction)): 0.262 fmol/mg wet tissue and 0.135 fmol/mg wet tissue and 0.108 fmol/mg wet tissue (2×) and 0.102 fmol/mg wet tissue
Release of CGRP into the incubation medium, Mean (1 microM, before stimulation (pre-stimulated fraction)): 0.143 fmol/mg wet tissue
CGRP release, % increase above baseline (1 microM, during stimulation): 101.59%
Release of CGRP into the incubation medium (1 microM, during stimulation (stimulated 8-min fraction)): 0.510 fmol/mg wet tissue and 0.433 fmol/mg wet tissue and 0.170 fmol/mg wet tissue (2×) and 0.161 fmol/mg wet tissue
Release of CGRP into the incubation medium, Mean (1 microM, during stimulation (stimulated fraction)): 0.289 fmol/mg wet tissue
Absolute release of CGRP (1 microM): 0.371 fmol/mg wet tissue and 0.325 fmol/mg wet tissue and 0.083 fmol/mg wet tissue (2×) and 0.077 fmol/mg wet tissue
Absolute release of CGRP, Mean (1 microM): 0.188 fmol/mg wet tissue
CGRP release, % increase above baseline (2 microM, after stimulation): −4.59%
Release of CGRP into the incubation medium (2 microM, after stimulation (post-stimulated 8-min fraction)): 0.200 fmol/mg wet tissue and 0.161 fmol/mg wet tissue and 0.133 fmol/mg wet tissue and 0.018 fmol/mg wet tissue and 0.167 fmol/mg wet tissue
Release of CGRP into the incubation medium, Mean (2 microM, after stimulation (post-stimulated fraction)): 0.136 fmol/mg wet tissue
CGRP release, % increase above baseline (2 microM, before stimulation): 0.00%
Release of CGRP into the incubation medium (2 microM, before stimulation (pre-stimulated 8-min fraction)): 0.102 fmol/mg wet tissue and 0.231 fmol/mg wet tissue and 0.097 fmol/mg wet tissue and 0.148 fmol/mg wet tissue and 0.134 fmol/mg wet tissue
Release of CGRP into the incubation medium, Mean (2 microM, before stimulation (pre-stimulated fraction)): 0.142 fmol/mg wet tissue
CGRP release, % increase above baseline (2 microM, during stimulation): 204.09%
Release of CGRP into the incubation medium (2 microM, during stimulation (stimulated 8-min fraction)): 0.198 fmol/mg wet tissue and 0.584 fmol/mg wet tissue and 0.388 fmol/mg wet tissue and 0.645 fmol/mg wet tissue and 0.353 fmol/mg wet tissue
Release of CGRP into the incubation medium, Mean (2 microM, during stimulation (stimulated fraction)): 0.433 fmol/mg wet tissue
Absolute release of CGRP (2 microM): 0.192 fmol/mg wet tissue and 0.284 fmol/mg wet tissue and 0.326 fmol/mg wet tissue and 0.366 fmol/mg wet tissue and 0.253 fmol/mg wet tissue
Absolute release of CGRP, Mean (2 microM): 0.284 fmol/mg wet tissue
Effect on stimulation-evoked CGRP release (10-2000 nM added to the second and third fractions): significantly inhibited
Effect on CGRP release in the third, post-stimulated fraction (100 and 500 nM): significantly inhibited
EC50 (sigmoidal concentration-response curve, non-linear least square fit, 10-2000 nM, read-out: EC50 for inhibition of electrically-evoked CGRP release): 40.6 nM
Effect on CGRP release in the third, post-stimulated fraction (two highest concentrations (1000 and 2000 nM)): abolished
